We go through three compounds from US20230124862A1, “BISMUTH THIOL COMPOUNDS AND COMPOSITIONS AND METHODS OF TREATING MICROBIAL CO-INFECTIONS” (Microbion Corporation, priority 2020, published 2023).

Converted amounts (≈) assume the structure as drawn. Read-outs that look alike come from different tables or passages of the source.

What is called MIC is the lowest concentration that inhibits growth of the organism. What is called NOAEL is the highest tested level that showed no adverse finding. The term half-life denotes the time in which the quantity being followed falls by half.

One series has as its system Enterococcus spp. Briefly: Broth microdilution MIC (Example 11). Format: cell-based, E. faecalis, E. faecium. To be noted: Enterococcus, VRE, enterococci incl. VRE; read-out: MIC values. (In general: Broth dilution looks for growth in wells or tubes with falling amounts of substance.)
Series [1] can be described thus: in vivo. To be noted: rat, rats, lung-deposited dose, read-out: acute no observed adverse effect level (NOAEL). Here is the method: Based on rat tox and PK data to date, an acute no observed adverse effect level (NOAEL) in rats is approximately 100 μg/kg lung-deposited dose. The NOAEL was established through clinical observation during and after treatment, gross necropsy, lung lavage analysis, clinical chemistry, and hematology results. […] Furthermore, lung surface fluid concentrations are approximately 30-fold higher than the corresponding total lung tissue concentrations for BisEDT which appears to persist primarily on the lumen.

Series [2] relates to Gram-negative organisms (P. aeruginosa, E. coli, A. baumannii, H. influenzae). The conditions noted are these: cited from earlier work.
Series [3] can be described thus: in vivo. Details: species or system rat. To be noted: for half-life / concentration at 24 hours / Kp: in vivo. From the text: . Without being bound by any particular theory, it is believed BisEDT's low solubility provides slow dissolution and long exposure on lung surface fluids with limited systemic exposure via diffusion through lung epithelium. The lung appears to act as a depot for slow systemic exposure with about 10× lower systemic levels than seen in the lung. The terminal phase of the IV data appears to show slow elimination after initial tissue distribution (FIG. 36).
. The NOAEL was established through clinical observation during and after treatment, gross necropsy, lung lavage analysis, clinical chemistry, and hematology results. […].

The nature of series [4]: in vivo. To be noted: both sexes; for concentration at 30 hr: sac time 30 hr. Also on record: species or system F344 rats. The procedure: Detailed gross necropsies were performed on all animals (found dead, moribund, or scheduled necropsy) and consisted of a complete external and internal examination including body orifices and cranial, thoracic, and abdominal organs and tissues. All gross findings will be recorded in descriptive terms. […] Lungs collected and weighed.

The test system of another series is Enterobacteriaceae. The conditions noted are these: E. coli (MMX 102), QC; cited from earlier work.
For a further series, the system named is Klebsiella pneumoniae. The series is described as follows: Broth microdilution MIC (Example 12). The series is classed as cell-based.
Setting [5] is: rat, 24 hours after single inhalation dose.
[6] abbreviates: rat, 4 days (96 hrs) after single dose.

As to `CC(S)C(C)S.[Bi]` (stereo not drawn) [BisBDT, bismuth-2,3-butanedithiol], the minimal inhibitory concentration (MIC) in the series with Enterococcus spp. was in the range of 0.25 to 1 µg/mL.
As for `C1C[S][Bi]([S]CC[S][Bi]2[S]CC[S]2)[S]1` [BisEDT, Bismuth-1,2-ethanedithiol], the no-observed-adverse-effect level (NOAEL) in “in vivo [1]” was roughly 0.1 mg/kg. Moreover, the “CLSI acceptable MIC QC range” value was “(0.015-0.06) μg/mL” in series [2] (H. Influenzae ATCC 49247) and 0.5 to 4 µg/mL in series [2] (P. aeruginosa ATCC 27853). The half-life in the series “in vivo [3]” (100 μg/kg, rat, after IV dosing, read-out: half-life of lung levels (converted)) is roughly 24 h; in “in vivo [3]” (inhaled or intranasal, 100 μg/kg, rat, after inhalation dosing, read-out: half-life in lung tissue (converted)), roughly 96 h; in “in vivo [3]” (rat, longer-term single-dose and repeat-dose studies, read-out: half-life in lung tissue (converted)) it was 96 to 168 h. For the same compound, the concentration at 24 hours in the series “in vivo [3]” (average rat, correlated from lung tissue level, read-out: concentration in lung epithelial lining fluid) is 150 to 175 µg/mL; in the series “in vivo [3]” (rat, rats, doses near the NOAEL, 24 hours after dosing, read-out: lung tissue level (total wet lung tissue)), roughly 5000 ng/g. The “lung surface fluid concentrations higher than total lung tissue concentrations” value in the series “in vivo [3]” (rat) was “approximately 30 fold”. Also, in “in vivo [3]” (rat, 100 μg/kg inhalation and IV and 250 μg/kg oral), the tolerability result is “tolerated”. Also, the “equivalent concentration in lung fluid” value in the series “in vivo [3]” (setting [5]) was determined as 123 µg/mL; in the series “in vivo [3]” (setting [6]), 78 µg/mL. Moreover, the lung tissue concentration in “in vivo [3]” (setting [5]) is listed as 4,093 ng/g; in “in vivo [3]” (setting [6]), 2,600 ng/g. For the same compound, the “lung levels after IV dosing vs inhalation group” value in “in vivo [3]” (rat, IV) is on record as less than 5%. The Kp in “in vivo [3]” (rat, rat, repeat dose TK, read-out: lung tissue exposure (AUC) greater than blood exposure) was 26; in the series “in vivo [3]” (rat, rat, read-out: lung fluid exposure (AUC) greater than systemic exposure) it was greater than 700. Besides, the concentration at 30 hr is 4.8 ng/g in “in vivo [4]” (F344, in vivo, rat, inhalation, dose 47 μg/kg, read-out: Mean BisEDT Conc, lung at sacrifice); 5.9 ng/g in the series “in vivo [4]” (F344, in vivo, rat, inhalation, dose 124 μg/kg, read-out: Mean BisEDT Conc, lung at sacrifice); 12.1 ng/g in “in vivo [4]” (F344, in vivo, rat, inhalation, dose 400 μg/kg, read-out: Mean BisEDT Conc, lung at sacrifice). Further, the concentration at 24 hr in the series “in vivo [4]” (F344, in vivo, rat, inhalation, dose 3000 μg/kg, sac time 24 hr, read-out: Mean BisEDT Conc, lung at sacrifice) was 82.3 ng/g. The Kp at 24 hours in the series “in vivo [4]” (F344, rat, in vivo, rats, 24 hours after dosing, read-out: lung tissue drug levels higher than blood levels) was in the range of 4 to 5.
As to `C[C@@H](O)[C@H]1C(=O)N2C(C(=O)O)=C(S[C@@H]3CN[C@H](C(=O)N(C)C)C3)[C@H](C)[C@H]12` [MEM], in the series on Enterobacteriaceae, the “CLSI Quality Control Range (MIC)” value is reported as “(0.008-0.06) μg/mL”. Further, the minimum inhibitory concentration (MIC) against Klebsiella pneumoniae (K. pneumoniae ATCC BAA-1705, ATCC QC organism (Table 102)) was 8 µg/mL (≈ 20.9 µM); in the series on Klebsiella pneumoniae (K. pneumoniae ATCC BAA-1705, ESBL/KPC), 8 µg/mL (≈ 20.9 µM); in the series with Klebsiella pneumoniae (K. pneumoniae CDC 112, KPC) it was greater than 8 µg/mL; against Klebsiella pneumoniae (K. pneumoniae CDC 113, ESBL/KPC), greater than 8 µg/mL; in the series with Klebsiella pneumoniae (K. pneumoniae CDC 115, ESBL/KPC), greater than 8 µg/mL; in the series on Klebsiella pneumoniae (K. pneumoniae CDC 120, ESBL/KPC), greater than 8 µg/mL. Moreover, the MIC in the series with Klebsiella pneumoniae (K. pneumoniae CDC 126, ESBL/KPC) is 4 µg/mL (≈ 10.4 µM); against Klebsiella pneumoniae (K. pneumoniae CDC 129, ESBL/KPC), 8 µg/mL (≈ 20.9 µM); with Klebsiella pneumoniae (K. pneumoniae CDC 135, ESBL/VIM), 1 µg/mL (≈ 2.61 µM); against Klebsiella pneumoniae (K. pneumoniae CDC 138, ESBL/NDM), greater than 8 µg/mL; against Klebsiella pneumoniae (K. pneumoniae CDC 158, ESBL/NDM/OXA) it was greater than 8 µg/mL; in the series on Klebsiella pneumoniae (K. pneumoniae MMX 9029, ESBL), 0.015 µg/mL (≈ 0.0391 µM).
